Results taken from the supplement of paper PMC10307832.

Columns and labels:
Assay in all cases: relative viability (nuclei count vs DMSO), 5 days (fraction); higher = more cells survive
EMC-BAC-2 = system: EMC-BAC-2
In short: (§1)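 Relative viability divides the nuclei count in treated wells by that in vehicle wells. Lung cancer cell lines were seeded in 1536-well plates, dosed by pin tool the next day, and fixed and stained after 5 days in one step with final 0.05% Triton X-100, 1% formaldehyde and 1 ug/ml Hoechst. Dosing was a single drug or a fixed anchor-drug dose plus five library-drug doses (not always all listed) in √10 steps, and values are medians of duplicate plates imaged at 4×.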

EPLC-272H = system: EPLC-272H
In short: as §1

H3255 = system: H3255
In short: as §1

HOP-62 = system: HOP-62
In short: as §1

LCLC-97TM1 = system: LCLC-97TM1
In short: as §1

LXF-289 = system: LXF-289
In short: as §1

NCI-H1563 = system: NCI-H1563
In short: as §1

NCI-H1650 = system: NCI-H1650
In short: as §1

NCI-H1915 = system: NCI-H1915
In short: as §1

NCI-H1993 = system: NCI-H1993
In short: as §1

NCI-H2009 = system: NCI-H2009
In short: as §1

NCI-H2023 = system: NCI-H2023
In short: as §1

NCI-H2085 = system: NCI-H2085
In short: as §1

NCI-H2126 = system: NCI-H2126
In short: as §1

NCI-H2347 = system: NCI-H2347
In short: as §1

NCI-H322M = system: NCI-H322M
In short: as §1

NCI-H647 = system: NCI-H647
In short: as §1

NCI-H661 = system: NCI-H661
In short: as §1

NCI-H727 = system: NCI-H727
In short: as §1

PC-14 = system: PC-14
In short: as §1

SK-LU-1 = system: SK-LU-1
In short: as §1

SW 1573 = system: SW 1573
In short: as §1

SMILES: O=C(O)c1ccc(-c2c[nH]c3ncc(-c4ccccc4)cc23)cc1C1CCCC1 + C[C@@H](Oc1cc(-c2cnn(C3CCNCC3)c2)cnc1N)c1c(Cl)ccc(F)c1Cl [Crizotinib] (partner 1 µM)
- relative viability (EMC-BAC-2; first compound 0.04 µM): 0.76
- relative viability (EMC-BAC-2; first compound 0.1265 µM): 0.806
- relative viability (EMC-BAC-2; first compound 0.4 µM): 0.671
- relative viability (EMC-BAC-2; first compound 1.265 µM): 0.672
- relative viability (EPLC-272H; first compound 0.04 µM): 0.974
- relative viability (EPLC-272H; first compound 0.1265 µM): 1.01
- relative viability (EPLC-272H; first compound 0.4 µM): 0.989
- relative viability (EPLC-272H; first compound 1.265 µM): 0.655
- relative viability (H3255; first compound 0.04 µM): 0.953
- relative viability (H3255; first compound 0.1265 µM): 0.851
- relative viability (H3255; first compound 0.4 µM): 0.825
- relative viability (H3255; first compound 1.265 µM): 0.9
- relative viability (HOP-62; first compound 0.04 µM): 0.902
- relative viability (HOP-62; first compound 0.1265 µM): 0.901
- relative viability (HOP-62; first compound 0.4 µM): 0.904
- relative viability (HOP-62; first compound 1.265 µM): 0.497
- relative viability (LCLC-97TM1; first compound 0.04 µM): 0.376
- relative viability (LCLC-97TM1; first compound 0.1265 µM): 0.329
- relative viability (LCLC-97TM1; first compound 0.4 µM): 0.234
- relative viability (LCLC-97TM1; first compound 1.265 µM): 0.326
- relative viability (LXF-289; first compound 0.04 µM): 0.741
- relative viability (LXF-289; first compound 0.1265 µM): 0.772
- relative viability (LXF-289; first compound 0.4 µM): 0.594
- relative viability (LXF-289; first compound 1.265 µM): 0.285
- relative viability (NCI-H1563; first compound 0.04 µM): 0.787
- relative viability (NCI-H1563; first compound 0.1265 µM): 0.91
- relative viability (NCI-H1563; first compound 0.4 µM): 0.851
- relative viability (NCI-H1563; first compound 1.265 µM): 0.875
- relative viability (NCI-H1650; first compound 0.04 µM): 1.02
- relative viability (NCI-H1650; first compound 0.1265 µM): 0.996
- relative viability (NCI-H1650; first compound 0.4 µM): 0.917
- relative viability (NCI-H1650; first compound 1.265 µM): 0.743
- relative viability (NCI-H1915; first compound 0.04 µM): 0.96
- relative viability (NCI-H1915; first compound 0.1265 µM): 0.898
- relative viability (NCI-H1915; first compound 0.4 µM): 0.67
- relative viability (NCI-H1915; first compound 1.265 µM): 0.636
- relative viability (NCI-H1993; first compound 0.04 µM): 0.805
- relative viability (NCI-H1993; first compound 0.4 µM): 0.805
- relative viability (NCI-H1993; first compound 1.265 µM): 0.812
- relative viability (NCI-H2009; first compound 0.04 µM): 0.994
- relative viability (NCI-H2009; first compound 0.1265 µM): 1.05
- relative viability (NCI-H2009; first compound 0.4 µM): 0.931
- relative viability (NCI-H2009; first compound 1.265 µM): 0.666
- relative viability (NCI-H2023; first compound 0.04 µM): 0.639
- relative viability (NCI-H2023; first compound 0.1265 µM): 0.669
- relative viability (NCI-H2023; first compound 0.4 µM): 0.572
- relative viability (NCI-H2023; first compound 1.265 µM): 0.603
- relative viability (NCI-H2085; first compound 0.04 µM): 0.832
- relative viability (NCI-H2085; first compound 0.1265 µM): 0.804
- relative viability (NCI-H2085; first compound 0.4 µM): 0.878
- relative viability (NCI-H2085; first compound 1.265 µM): 0.696
- relative viability (NCI-H2126; first compound 0.04 µM): 1.04
- relative viability (NCI-H2126; first compound 0.1265 µM): 1.03
- relative viability (NCI-H2126; first compound 0.4 µM): 0.995
- relative viability (NCI-H2126; first compound 1.265 µM): 0.824
- relative viability (NCI-H2347; first compound 0.04 µM): 0.621
- relative viability (NCI-H2347; first compound 0.1265 µM): 0.707
- relative viability (NCI-H2347; first compound 0.4 µM): 0.642
- relative viability (NCI-H2347; first compound 1.265 µM): 0.568
- relative viability (NCI-H322M; first compound 0.04 µM): 0.943
- relative viability (NCI-H322M; first compound 0.1265 µM): 0.918
- relative viability (NCI-H322M; first compound 0.4 µM): 1.01
- relative viability (NCI-H322M; first compound 1.265 µM): 0.839
- relative viability (NCI-H647; first compound 0.04 µM): 1.01
- relative viability (NCI-H647; first compound 0.1265 µM): 1.08
- relative viability (NCI-H647; first compound 0.4 µM): 0.987
- relative viability (NCI-H647; first compound 1.265 µM): 0.77
- relative viability (NCI-H661; first compound 0.1265 µM): 0.963
- relative viability (NCI-H661; first compound 0.4 µM): 0.967
- relative viability (NCI-H661; first compound 1.265 µM): 1.03
- relative viability (NCI-H727; first compound 0.04 µM): 0.971
- relative viability (NCI-H727; first compound 0.1265 µM): 0.894
- relative viability (NCI-H727; first compound 0.4 µM): 0.738
- relative viability (NCI-H727; first compound 1.265 µM): 0.805
- relative viability (PC-14; first compound 0.04 µM): 0.931
- relative viability (PC-14; first compound 0.1265 µM): 0.849
- relative viability (PC-14; first compound 0.4 µM): 0.921
- relative viability (PC-14; first compound 1.265 µM): 0.672
- relative viability (SK-LU-1; first compound 0.04 µM): 0.927
- relative viability (SK-LU-1; first compound 0.1265 µM): 0.901
- relative viability (SK-LU-1; first compound 0.4 µM): 0.719
- relative viability (SK-LU-1; first compound 1.265 µM): 0.682
- relative viability (SW 1573; first compound 0.04 µM): 0.769
- relative viability (SW 1573; first compound 0.1265 µM): 0.892
- relative viability (SW 1573; first compound 0.4 µM): 0.862
- relative viability (SW 1573; first compound 1.265 µM): 0.925
